Reference: the Kinase Knowledgebase extract (Sharma et al. 2016)

target: PIK3CA (human) (UniProt P42336); experiment: Assessment of PI3KCA Kinase Activity
Sequence (P42336 whole entry, looked up): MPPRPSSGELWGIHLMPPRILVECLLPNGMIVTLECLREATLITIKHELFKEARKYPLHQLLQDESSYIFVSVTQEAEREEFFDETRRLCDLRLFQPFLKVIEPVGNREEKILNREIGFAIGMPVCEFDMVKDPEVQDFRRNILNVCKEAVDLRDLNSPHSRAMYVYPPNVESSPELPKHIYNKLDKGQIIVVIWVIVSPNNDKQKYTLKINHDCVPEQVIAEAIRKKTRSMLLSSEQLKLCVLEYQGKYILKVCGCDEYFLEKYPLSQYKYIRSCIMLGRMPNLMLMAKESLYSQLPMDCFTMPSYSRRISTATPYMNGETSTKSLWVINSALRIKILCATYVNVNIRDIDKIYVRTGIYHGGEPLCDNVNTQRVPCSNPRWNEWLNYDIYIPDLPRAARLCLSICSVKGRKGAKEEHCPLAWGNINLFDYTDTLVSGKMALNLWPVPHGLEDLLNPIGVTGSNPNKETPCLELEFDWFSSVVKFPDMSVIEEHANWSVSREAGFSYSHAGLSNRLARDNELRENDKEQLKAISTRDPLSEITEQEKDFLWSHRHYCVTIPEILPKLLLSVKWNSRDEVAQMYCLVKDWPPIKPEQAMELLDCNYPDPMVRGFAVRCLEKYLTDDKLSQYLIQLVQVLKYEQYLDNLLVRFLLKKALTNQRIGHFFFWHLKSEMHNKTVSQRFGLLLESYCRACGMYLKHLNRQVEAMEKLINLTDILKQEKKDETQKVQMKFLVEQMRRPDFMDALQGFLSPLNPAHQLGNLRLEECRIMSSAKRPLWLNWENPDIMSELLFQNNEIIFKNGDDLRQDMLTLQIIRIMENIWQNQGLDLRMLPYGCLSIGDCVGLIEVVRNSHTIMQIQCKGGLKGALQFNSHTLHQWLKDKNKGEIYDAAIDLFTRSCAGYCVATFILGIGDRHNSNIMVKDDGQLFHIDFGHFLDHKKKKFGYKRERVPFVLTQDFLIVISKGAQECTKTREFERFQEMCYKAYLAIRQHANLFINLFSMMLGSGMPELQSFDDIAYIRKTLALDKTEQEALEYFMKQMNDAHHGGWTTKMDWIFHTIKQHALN

| SMILES | IC50 [nM] |
| --- | --- |
| COc1cccc(F)c1-c1nc(-c2c(C)nn3ccc(OCCN4CCN(C)CC4)cc23)sc1-c1nc[nH]n1 | < 100 |
| CC(=O)Nc1cc(-c2nc(-c3ccccc3)c(-c3nnc[nH]3)s2)cc(C)n1 | 100 to 1000 |
| CNCC(=O)Nc1cc(-c2sc(-c3nnc[nH]3)c(-c3ccc(Cl)cc3Cl)c2C#N)ccn1 | 100 to 1000 |
| CC(C)(C)Nc1nc2c(-c3cc(-c4ccc(Cl)cc4Cl)c(-c4ncc[nH]4)s3)ncnc2s1 | < 100 |
| Cc1nn2ccc(-c3cnn(C)c3)cc2c1-c1nc(-c2ccccc2)c(-c2nc[nH]n2)s1 | < 100 |
| CNc1ncc(Cl)c(-c2sc(-c3nnc[nH]3)c(-c3ccc(Cl)cc3Cl)c2C#N)n1 | 100 to 1000 |
| CC(=O)Nc1cc(-c2nc(-c3ccccc3C)c(-c3ncc[nH]3)s2)ccn1 | < 100 |
| Cc1nn2ccccc2c1-c1nc(-c2ccoc2)c(-c2nnc[nH]2)s1 | < 100 |
| N#Cc1c(-c2ccnc(NC(=O)CCc3ccccc3)c2)sc(-c2nnc[nH]2)c1-c1ccc(Cl)cc1Cl | 100 to 1000 |
| CC(=O)Nc1cc(-c2nc(-c3ccc(C(=O)N4CCNCC4)cc3)c(-c3ncc[nH]3)s2)ccn1 | 100 to 1000 |
| Cc1nn2ccc(OCCN3CCCCC3)cc2c1-c1nc(-c2ccccc2)c(-c2nnc[nH]2)s1 | < 100 |
| CC(=O)Nc1cc(-c2nc(-c3ccc(N(C)C)nc3)c(-c3ncc[nH]3)s2)ccn1 | 100 to 1000 |
| CC(=O)Nc1cc(-c2nc(-c3cccc(C)c3)c(-c3ncc[nH]3)s2)ccn1 | 100 to 1000 |
| COCC(=O)Nc1cc(-c2sc(-c3nnc[nH]3)c(-c3ccc(Cl)cc3Cl)c2C#N)ccn1 | < 100 |
| O=C1CCc2c(-c3nc(-c4ccc(Cl)cc4Cl)c(-c4ncc[nH]4)s3)ccnc2N1 | < 100 |
| CCOc1nc(-c2ccnc(NC(=O)c3ccc(OC)cc3)c2)sc1-c1nnc[nH]1 | 100 to 1000 |
| Cc1nnc(-c2sc(-c3c(C)nn4ccsc34)nc2-c2ccccc2)[nH]1 | < 100 |
| Cc1nn2ccsc2c1-c1nc(OCc2ccccc2)c(-c2nnc[nH]2)s1 | < 100 |
| Cc1cccc(C)c1-c1nc(-c2c(C)nn3ccccc23)sc1-c1nc[nH]n1 | < 100 |
| CCOc1nc(-c2ccnc(NC(=O)c3cccc(F)c3)c2)sc1-c1nnc[nH]1 | < 100 |
| CC(=O)NCCOc1ccn2nc(C)c(-c3nc(-c4ccccc4)c(-c4nc[nH]n4)s3)c2c1 | < 100 |
| Cc1cc(-c2cc(-c3ccc(Cl)cc3Cl)c(-c3ncc[nH]3)s2)ccn1 | < 100 |
| Cc1nn2ccccc2c1-c1nc(-c2c(F)cccc2F)c(-c2nc[nH]n2)s1 | < 100 |
| Cc1nn2ccccc2c1-c1nc(-c2cccs2)c(-c2nc[nH]n2)s1 | < 100 |

| SMILES | IC50 [nM] |
| --- | --- |
| Cc1nn2ccsc2c1-c1nc(-c2ccccc2)c(-c2ncc[nH]2)s1 | < 100 |
| CNc1nccc(-c2sc(-c3nnc[nH]3)c(-c3ccc(Cl)cc3Cl)c2C#N)n1 | < 100 |
| CNc1cc(-c2sc(-c3nccn3C)c(-c3ccc(Cl)cc3Cl)c2C#N)ccn1 | 100 to 1000 |
| N#Cc1c(-c2ccnc(NC(=O)CN)c2)sc(-c2nnc[nH]2)c1-c1ccc(Cl)cc1Cl | < 100 |
| Cc1nn2ccsc2c1-c1nc(-c2ccccc2)c(-c2nnn[nH]2)s1 | 100 to 1000 |
| Cc1nn2ccccc2c1-c1nc(-c2cc(C=O)ccc2Cl)c(-c2nnc[nH]2)s1 | < 100 |
| Cc1nc2ccc(C=O)cn2c1-c1nc(-c2ccccc2)c(-c2nnc[nH]2)s1 | < 100 |
| N#Cc1c(-c2ccnc(NC(=O)c3ccncc3)c2)sc(-c2nnc[nH]2)c1-c1ccc(Cl)cc1Cl | 100 to 1000 |
| N#Cc1c(-c2ccncc2)sc(-c2nnc[nH]2)c1-c1ccc(Cl)cc1Cl | 100 to 1000 |
| N#Cc1c(-c2ccnc(NC(=O)c3cnccn3)c2)sc(-c2nnc[nH]2)c1-c1ccc(Cl)cc1Cl | 100 to 1000 |
| CC(=O)Nc1cc(-c2nc(-c3cc(C(=O)N4CCCC4)ccc3F)c(-c3ncc[nH]3)s2)ccn1 | 100 to 1000 |
| Cc1nn2ccsc2c1-c1nc(-c2nc[nH]n2)c(-c2ccccc2)s1 | 100 to 1000 |
| Cc1nn2ccccc2c1-c1nc(C(C)(C)C)c(-c2nnc[nH]2)s1 | < 100 |
| CC(=O)Nc1cc(-c2nc(-c3ccccc3C(F)(F)F)c(-c3nnc[nH]3)s2)ccn1 | 100 to 1000 |
| CC(=O)Nc1cc(-c2nc(-c3ccc(N)nc3)c(-c3ncc[nH]3)s2)ccn1 | 100 to 1000 |
| COC(=O)Nc1cc(-c2nc(-c3ccc(Cl)cc3Cl)c(-c3nnc(N)[nH]3)s2)ccn1 | < 100 |
| CCOc1nc(-c2ccnc(NC(=O)c3ccc(F)cc3)c2)sc1-c1nnc[nH]1 | 100 to 1000 |
| N#Cc1c(-c2ccnc(F)c2)sc(-c2nnc[nH]2)c1-c1ccc(Cl)cc1Cl | 100 to 1000 |
| Cc1cc(C(=O)Nc2cc(-c3sc(-c4nnc[nH]4)c(-c4ccc(Cl)cc4Cl)c3C#N)ccn2)no1 | 100 to 1000 |
| COc1cccc(F)c1-c1ccc2nc(C)c(-c3nc(-c4ccccc4)c(-c4nc[nH]n4)s3)n2c1 | 100 to 1000 |
| N#Cc1c(-c2ccnc(N)c2)sc(C(N)=O)c1-c1ccc(Cl)cc1Cl | < 100 |
| Cc1nn2ccccc2c1-c1nc(C2CCOCC2)c(-c2nnc[nH]2)s1 | < 100 |
| Cc1nc2ccc(C3CCCCC3)cn2c1-c1nc(-c2ccccc2)c(-c2nc[nH]n2)s1 | 100 to 1000 |
| COC(=O)c1ccc(-c2nc(-c3ccnc(NC(C)=O)c3)sc2-c2ncc[nH]2)cc1 | 100 to 1000 |

| SMILES | IC50 [nM] |
| --- | --- |
| COC(=O)Nc1cc(-c2sc(-c3nnc[nH]3)c(-c3ccc(Cl)cc3Cl)c2C#N)ccn1 | < 100 |
| CC(=O)Nc1nc2c(-c3cc(-c4ccc(Cl)cc4Cl)c(-c4ncc[nH]4)s3)ncnc2s1 | 100 to 1000 |
| Cc1nn2ccccc2c1-c1nc(-c2ccccc2)c(-c2nnc[nH]2)s1 | < 100 |
| Cc1nn2ccccc2c1-c1nc(-c2cccc(F)c2F)c(-c2nc[nH]n2)s1 | < 100 |
| CC(=O)Nc1cc(-c2nc(-c3cccc4cnccc34)c(-c3ncc[nH]3)s2)ccn1 | 100 to 1000 |
| C=CCOc1nc(-c2c(C)nn3ccccc23)sc1-c1nnc[nH]1 | < 100 |
| CCOc1nc(-c2ccnc(NC(=O)CC(C)C)c2)sc1-c1nnc[nH]1 | 100 to 1000 |
| Cc1nc2ccc(CNCCCN)cn2c1-c1nc(-c2ccccc2)c(-c2nnc[nH]2)s1 | < 100 |
| CC(=O)Nc1cc(-c2nc(-c3ccc(Cl)cc3Cl)c(-c3ncc[nH]3)s2)ncn1 | < 100 |
| CC(=O)Nc1cc(-c2nc(-c3ccc(CO)cc3)c(-c3ncc[nH]3)s2)ccn1 | 100 to 1000 |
| CC(=O)Nc1cc(-c2sc(-c3nccn3Cc3ccccn3)c(-c3ccc(Cl)cc3Cl)c2C#N)ccn1 | 100 to 1000 |
| Cc1ccc(-c2nc(-c3c(C)nn4ccccc34)sc2-c2nc[nH]n2)o1 | < 100 |
| CC(=O)Nc1cc(-c2nc(-c3cc4ccccc4s3)c(-c3ncc[nH]3)s2)ccn1 | < 100 |
| COc1ccc(Cl)c(-c2nc(-c3ccnc(NC(C)=O)c3)sc2-c2ncc[nH]2)c1 | < 100 |
| CC(=O)Nc1cc(-c2nc(-c3ccc4nonc4c3)c(-c3ncc[nH]3)s2)ccn1 | 100 to 1000 |
| Clc1ccc(-c2cc(-c3ccnc4ccccc34)sc2-c2ncc[nH]2)c(Cl)c1 | 100 to 1000 |
| CCOc1nc(-c2c(C)nn3ccccc23)sc1-c1nnc[nH]1 | < 100 |
| CCOc1nc(-c2ccnc(NC(=O)COc3ccccc3)c2)sc1-c1nnc[nH]1 | 100 to 1000 |
| Cc1nn2ccccc2c1-c1nc(-c2cnn(C)c2C)c(-c2nc[nH]n2)s1 | < 100 |
| N#Cc1c(-c2ccnc(N)c2)sc(-c2nnc[nH]2)c1-c1ccc(Cl)cc1Cl | < 100 |
| COC(=O)c1cccc(-c2nc(-c3c(C)nn4ccccc34)sc2-c2nc[nH]n2)c1 | 100 to 1000 |
| N#Cc1c(-c2ccnc(NCCO)n2)sc(-c2nnc[nH]2)c1-c1ccc(Cl)cc1Cl | < 100 |
